Experiments:
Assay type in all cases: biochemical
SIRT1 [1] = molecular target: T1, SIRT1 (Homo sapiens, UniProt Q96EB6); test: Fluorescence polarization assay of SIRT1 activity (p53-based peptide substrate); conditions: activation of SIRT1; peptide 1 for Compounds 1-18, peptide 2 for Compounds 19-164; read-out: ED50 FP
T1 sequence (Q96EB6 1-747): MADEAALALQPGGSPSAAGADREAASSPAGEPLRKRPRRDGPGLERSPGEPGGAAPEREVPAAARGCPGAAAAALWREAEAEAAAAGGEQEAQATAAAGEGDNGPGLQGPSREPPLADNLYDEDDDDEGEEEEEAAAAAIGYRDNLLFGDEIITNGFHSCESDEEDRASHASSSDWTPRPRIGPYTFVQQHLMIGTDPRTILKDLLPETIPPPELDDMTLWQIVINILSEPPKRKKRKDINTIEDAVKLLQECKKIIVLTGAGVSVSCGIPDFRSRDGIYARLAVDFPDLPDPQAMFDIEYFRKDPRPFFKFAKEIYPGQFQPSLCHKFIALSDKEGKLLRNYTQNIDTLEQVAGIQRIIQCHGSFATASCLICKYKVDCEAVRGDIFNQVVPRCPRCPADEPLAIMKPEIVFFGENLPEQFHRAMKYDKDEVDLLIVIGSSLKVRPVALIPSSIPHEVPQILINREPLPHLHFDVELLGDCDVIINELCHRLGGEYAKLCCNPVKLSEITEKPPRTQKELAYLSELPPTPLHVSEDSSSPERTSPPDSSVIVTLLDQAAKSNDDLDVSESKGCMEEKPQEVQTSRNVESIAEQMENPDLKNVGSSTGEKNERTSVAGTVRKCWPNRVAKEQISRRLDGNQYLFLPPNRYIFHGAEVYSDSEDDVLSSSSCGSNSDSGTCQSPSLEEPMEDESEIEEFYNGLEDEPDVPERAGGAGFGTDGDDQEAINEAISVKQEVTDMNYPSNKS
Experimental: A fluorescence polarization or mass spectrometry based assay was used to identify modulators of SIRT1 activity. The same assay may be used to identify modulators of any sirtuin protein. The fluorescence polarization assays utilizes one of two different peptides based on a fragment of p53, a known sirtuin deacetylation target. Compounds 1-18 were tested using a substrate containing peptide 1 having 20 amino acid residues as follows: Ac-EE-K(biotin)-[…](Ac)NleSTEG-K(M121)-EE-NH2 (SEQ ID NO: 1) wherein K(biotin) is a biotinolated lysine residue, K(Ac) is an acetylated lysine residue, Nle is norleucine and K(MR121) is a lysine residue modified by an MR121 fluorophore. This peptide is labeled with the fluorophore MR121 (excitation 635 nm/emission 680 nm) at the C-termini and biotin at the N-termini. The sequence of the peptide substrates are based on p53 with several modifications. In particular, all arginine and […] residues other than the acetylated lysine residues have replaced with serine so that the peptides are not susceptible to trypsin cleavage in the absence of deacetylation. In addition, the methionine residues naturally present in the sequences have been replaced with the norleucine because the methionine may be susceptible to oxidation during synthesis and purification. […] The peptide is labeled with the fluorophore 5TMR (excitation 540 nm/emission 580 nm) at the C-terminus. The sequence of the peptide substrate is also based on p53 with several modifications. In addition, the methionine residue naturally present in the sequence was replaced with the norleucine because the methionine may be susceptible to oxidation during synthesis and purification.
The peptide substrates were exposed to a sirtuin protein in the presence of NAD^+ to allow deacetylation of the substrate and render it sensitive to cleavage by trypsin. Trypsin was then added and the reaction was carried to completion (i.e., the deacetylated substrate is cleaved) releasing the MR121 or 5TMR fragment. Streptavidin is then added to the reaction where it can bind both the uncleaved substrate (i.e., any remaining acetylated substrate) and the non-fluorescent portion of the cleaved peptide substrate (i.e., the biotin containing fragment). The fluorescence polarization signal observed for the full length peptide substrates bound to streptavidin was higher than the fluorescence polarization signal observed for the released MR121 or 5TMR C-terminal fragment. In this way, the fluorescence polarization obtained is inversely proportional to the level of deacetylation (e.g., the signal is inversely proportional to the activity of the sirtuin protein). Results were read on a microplate fluorescence polarization reader (Molecular Devices Spectramax MD) with appropriate excitation and emission filters.
The fluorescence polarization assays using peptide 1 is conducted as follows: 0.5 μM peptide substrate and 150 μM βNAD^+ is incubated with 0.1 μg/mL of SIRT1 for 60 minutes at 37° C. in a reaction buffer (25 mM Tris-acetate pH8, 137 mM Na—Ac, 2.7 mM K—Ac, 1 mM Mg—Ac, 0.05% Tween-20, 0.1% Pluronic F127, 10 mM CaCl2, 5 mM DTT, 0.025% BSA, 0.15 mM Nicotinamide). Test compounds 1-18 were solubilized in DMSO and added to the reaction at 11 concentrations ranging from 0.7 μM to 100 μM.
Fluorescence polarization assays using peptide 2 is conducted as follows: 0.5 μM peptide substrate and 120 μM βNAD^+ were incubated with 3 nM SIRT1 for 20 minutes at 25° C. in a reaction buffer (25 mM Tris-acetate pH8, 137 mM Na—Ac, 2.7 mM K—Ac, 1 mM Mg—Ac, 0.05% Tween-20, 0.1% Pluronic F127, 10 mM CaCl2, 5 mM DTT, 0.025% BSA). Test compounds 19-56 were solubilized in DMSO and added to the reaction at 10 concentrations ranging from 300 μM to 0.15 μM in three-fold dilutions.
After the incubation with SIRT1, nicotinamide was added to the reaction to a final concentration of 3 mM to stop the deacetylation reaction and 0.5 μg/mL of trypsin was added to cleave the deacetylated substrate. […]

SIRT1 [2] = molecular target: T1, SIRT1; test: SIRT1 fluorescence polarization or mass spectrometry based assay (format not given); conditions: inhibition of SIRT1 (Table 5)
SIRT1 [3] = molecular target: T1, SIRT1; test: Mass spectrometry based assay of SIRT1 activity; set-up: key to FOLD ACTIVATION MS: A: Fold activation >250%; B: Fold Activation <250%; C: no fold activation; conditions: for EC50: activation of SIRT1, read-out: ED50 MS
Experimental: The mass spectrometry based assay utilizes a peptide having 20 amino acid residues as follows: […] The sequence of the peptide substrate is based on p53 with several modifications. […] Test compounds may be added to the reaction as described above. […] After the 25 minute incubation with SIRT1, 10 μL of 10% formic acid is added to stop the reaction. Reactions are sealed and frozen for later mass spec analysis. Determination of the mass of the substrate peptide allows for precise determination of the degree of acetylation (i.e. starting material) as compared to deacetylated peptide (product). […] This timepoint is the same as that used for test compounds and, within the linear range, the endpoint represents a change in velocity. For each of the above assays, SIRT1 protein was expressed and purified as follows. The SirT1 gene was cloned into a T7-promoter containing vector and transformed into BL21(DE3). The protein was expressed by induction with 1 mM IPTG as an N-terminal His-tag fusion protein at 18° C. overnight and harvested at 30,000×g. […] The protein was purified over a Ni-NTA column (Amersham) and fractions containing pure protein were pooled, concentrated and run over a sizing column (Sephadex S200 26/60 global). The peak containing soluble protein was collected and run on an Ion-exchange column (MonoQ). […] This protein was concentrated and dialyzed against dialysis buffer (20 mM Tris-HCl, 2 mM TCEP) overnight. The protein was aliquoted and frozen at −80° C. until further use.

Compound | EC50 (SIRT1 [1]) [µM] | IC50 (SIRT1 [2]) [µM] | FOLD ACTIVATION MS (SIRT1 [3]) | EC50 (SIRT1 [3]) [µM]
CC(=O)Oc1cc(C(=O)Nc2ccccc2C(=O)O)cc(C(=O)Nc2ccccc2C(=O)O)c1 [Compound 1] | < 50 |  |  | 
O=C(Nc1cc(NC(=O)c2ccccc2)c(C(=O)O)cc1C(=O)O)c1ccccc1 [Compound 2] | > 150 |  |  | 
O=C(Nc1ccccc1C(=O)O)c1cccc(C(=O)Nc2ccccc2C(=O)O)c1 [Compound 3] | 51 to 100 |  |  | 
COc1cc(NC(=O)c2cccc(Br)c2)c(C(=O)O)cc1OC [Compound 5] | 51 to 100 |  |  | 
COc1ccccc1C(=O)Nc1cccc(NC(=O)c2ccco2)c1 [Compound 6] | > 150 |  |  | 
CCOc1cccc(C(=O)Nc2cc(OC)c(OC)cc2C(=O)O)c1 [Compound 8] | 51 to 100 |  |  | 
CC1COCC(C)N1c1ccc(C(=O)NCc2cccc(CN)c2)cc1NC(=O)c1ccc2ccccc2c1 (stereo not shown) [Compound 9] | 101 to 150 |  |  | 
COc1cc(C(=O)Nc2cc(Cl)ccc2C(=O)O)ccc1OC(C)=O [Compound 10] | > 150 |  |  | 
O=C(O)c1ccc(NC(=O)c2cccc(NC(=O)c3cccs3)c2)cc1 [Compound 13] |  | < 50 |  | 
CC(=O)Oc1ccc(C(=O)Nc2ccc(C(=O)O)cc2NC(=O)c2ccc(OC(C)=O)cc2)cc1 [Compound 14] |  | 51 to 100 |  | 
O=C(Nc1cccc(-c2nc3ncccc3o2)c1)c1ccc(N2CCOCC2)cc1 [Compound 38] | > 150 |  | C | > 150
O=C(Nc1cccc(-c2nc3ncccc3o2)c1)c1ccc(N2CCCCC2)cc1 [Compound 39] | > 150 |  | C | > 150
COc1ccc(C(=O)Nc2cccc(-c3nc4ncccc4o3)c2)c(C(F)(F)F)c1 [Compound 40] | > 150 |  | C | > 150
CN(C)c1ccc(C(=O)Nc2cccc(-c3nc4ncccc4o3)c2)cc1 [Compound 43] | < 50 |  | B (Fold Activation <250%) | < 50
N#Cc1ccc(C(=O)Nc2cccc(-c3nc4ncccc4o3)c2)cc1 [Compound 45] | > 150 |  | C | > 150
O=C(Nc1cccc(-c2nc3ncccc3o2)c1)c1ccc(N2CCCC2)cc1 [Compound 47] |  | 51 to 100 |  | 

Results, then the compound that gave them:

EC50 (SIRT1 [1]) [µM] | IC50 (SIRT1 [2]) [µM] | FOLD ACTIVATION MS (SIRT1 [3]) | EC50 (SIRT1 [3]) [µM] | Compound
< 50 |  |  |  | COc1ccccc1C(=O)Nc1cccc(-c2nc3ncccc3o2)c1 [Compound 7]
> 150 |  | C | > 150 | COc1ccc(C(=O)Nc2cccc(-c3nc4ncccc4o3)c2)cc1C(F)(F)F [Compound 41]
< 50 |  | B (Fold Activation <250%) | < 50 | CN(C)c1cccc(C(=O)Nc2cccc(-c3nc4ncccc4o3)c2)c1 [Compound 42]
 | > 150 |  |  | N#Cc1cccc(C(=O)Nc2cccc(-c3nc4ncccc4o3)c2)c1 [Compound 44]
> 150 |  | C | > 150 | COc1cccc(OC)c1C(=O)Nc1cccc(-c2nc3ncccc3o2)c1 [Compound 46]
> 150 |  | C | > 150 | COc1cc(OC)c(C(=O)Nc2cccc(-c3nc4ncccc4o3)c2)c(OC)c1 [Compound 48]
> 150 |  | B (Fold Activation <250%) | < 50 | COc1cccc(C(=O)Nc2cccc(-c3nc4ncccc4o3)c2)c1C [Compound 49]
< 50 |  | B (Fold Activation <250%) | < 50 | COc1cc(C)ccc1C(=O)Nc1cccc(-c2nc3ncccc3o2)c1 [Compound 51]
< 50 |  | B (Fold Activation <250%) | < 50 | COc1ccc(C(=O)Nc2cccc(-c3nc4ncccc4o3)c2)cc1OC [Compound 52]
> 150 |  | C | > 150 | COc1ccc(C(=O)Nc2cccc(-c3nc4ncccc4o3)c2)c(OC)c1OC [Compound 53]
< 50 |  | B (Fold Activation <250%) | < 50 | COc1ccc(C(=O)Nc2cccc(-c3nc4ncccc4o3)c2)c(OC)c1 [Compound 55]
> 150 |  | B (Fold Activation <250%) | < 50 | O=C(Nc1cccc(-c2nc3ncccc3o2)c1)c1ccccc1 [Compound 56]

From patent publication US20090163476A1, “N-Phenyl Benzamide Derivatives as Sirtuin Modulators” (Sirtris Pharmaceuticals, Inc., priority 2005, published 2009)
